Source: patent US9301970B2, “Methods and compositions for treating trauma-hemorrhage using estrogen and derivatives thereof” (The UAB Research Foundation, priority 2006, dated 2016)

Assays:
[1] = test system: TNF-α, IL-1β, IL-6, MCP-1; assay: SCI: quantitative real time PCR of cytokines and chemokines in spinal cord; settings: SCI mice, 24 h; dosing as E50; ICI 182,780 = co-administration with 17β-estradiol
Protocol: A longitudinal incision was made on the midline of the back, exposing the paravertebral muscles. These muscles were dissected away exposing T5-T8 vertebrae. […] Following surgery, 1 ml of saline was administered subcutaneously in order to replace the blood volume lost during surgery. During the surgery and recovery from anesthesia, the mice were placed on a warm heating pad and covered with a warm towel. The mice were singly housed in a temperature-controlled room at 27° C. and survival was measured over a period of 10 days. Food and water were provided to the mice ad libitum. During this time period, the animals' bladders were manually voided twice a day until the mice were able to regain normal bladder function. In all injured groups, the spinal cord was compressed for 1 min. Sham-injured animals were only subjected to laminectomy.
(§2) At different time points (see FIG. 30), the mice (n=10 from each group for each of the 3 time points) were sacrificed in order to evaluate the various parameters as described below.
Total cellular RNA was isolated from the aqueous phase then the levels of IL-α, TNF-α, MCP-1, IL-6 gene products were determined by Real Time PCR. The amount of each PCR product of gene target was normalized to Glyceraldehyde-3-phosphate dehydrogenase (GAPDH). The RNA extracted from spinal cord of individual mice was reverse trascripted into first strand cDNA with Random Hexamers and purified Avian Myeloblastosis Virus Reverse Transcriptase (Takara, Japan) in 20 ml of reaction after a DNAse treatment and stored at −80° C. until use. Primers pair for each cytokine was designed using the software Oligo (Molecular Biology Insights, Cascade, Colo., USA). The PCR reactions were performed using the following cycle conditions: a denaturation step for 15 minutes at 95° C. and 40 cycles of 30 seconds denaturation at 94° C., 30 seconds annealing (TNF-á 61° C., IL-6 54° C., IL-1β 61° C., MCP-1 54° C., GADPH 56° C.), 15 sec at 72° C. and 7 minutes of final extension at 72° C. The PCR products were visualized by electrophoresis on agarose gel 2% stained by ethidium bromide. The purified PCR products were cloned into a plasmid vector, transformed into the E. coli TOP 10 (Invitrogen) and purified with Turbo Kit (QBIOgene, Calif., USA). The recombinant plasmid was linearized upstream the target sequence using the restriction endonuclease PmeI (Fermentas, Canada). Tenfold dilutions of recombinant plasmid from 10^9 copies down to 10^1 copies were used as standards. The real time PCR assay was developed and evaluated on the Rotor-Gene 3000 system (Corbett Research, Australia). […] The signal was acquired on the FAM channel (multichannel machine) (source, 470 nm; detector, 510 nm; gain set to 5) with the fluorescence reading taken at the end of each 72° C. step. […]

[2] = test system: Bax and Bcl-2; assay: SCI: Western blot analysis for Bax and Bcl-2; type: in vivo, mouse; settings: spinal cord, 24 hours after SCI; ICI 182,780 = co-administration with 17β-estradiol
Protocol: (§1) Mice were anaesthetized using chloral hydrate (400 mg/kg body weight) (Genovese 2006). A longitudinal incision was made on the midline of the back, exposing the paravertebral muscles. These muscles were dissected away exposing T5-T8 vertebrae. The spinal cord was exposed via a four-level T6-T7 laminectomy and SCI was produced by extradural compression using an aneurysm clip with a closing force of 24 g. Following surgery, 1 ml of saline was administered subcutaneously in order to replace the blood volume lost during surgery. During the surgery and recovery from anesthesia, the mice were placed on a warm heating pad and covered with a warm towel. The mice were singly housed in a temperature-controlled room at 27° C. and survival was measured over a period of 10 days. Food and water were provided to the mice ad libitum. […]
For Western blot analysis, 70 μg protein of lysates were mixed with gel loading buffer (50 mM Tris, 10% (w/v), sodium dodecyl sulphate (SDS), 10% (w/v) glycerol, 10% (v/v) 2- mercaptoethanol, 2 mg/ml bromophenol), boiled for 5 min, and subjected to SDSPAGE (12% polyacrylamide). […] The protein bands of Bax (23˜kDa), or Bcl -2 (26˜kDa) on x-ray film were scanned and densitometrically analyzed with a model GS-700 imaging densitometer (Bio-Rad Laboratories). […]

[3] = test system: Nitrotyrosine, iNOS, MPO, COX-2, Bax and Bcl-2; assay: SCI: immunohistochemical localization of nitrotyrosine, iNOS, MPO, COX-2, Bax and Bcl-2; settings: ICI 182,780 = co-administration with 17β-estradiol
Protocol: A longitudinal incision was made on the midline of the back, exposing the paravertebral muscles. These muscles were dissected away exposing T5-T8 vertebrae. […] Following surgery, 1 ml of saline was administered subcutaneously in order to replace the blood volume lost during surgery. During the surgery and recovery from anesthesia, the mice were placed on a warm heating pad and covered with a warm towel. […] Food and water were provided to the mice ad libitum. During this time period, the animals' bladders were manually voided twice a day until the mice were able to regain normal bladder function. In all injured groups, the spinal cord was compressed for 1 min. Sham-injured animals were only subjected to laminectomy.
as §2
At 24 h after SCI, the tissues were fixed in 10% (w/v) PBS-buffered formaldehyde and 8-μm sections were prepared from paraffin embedded tissues. After deparaffinization, endogenous peroxidase was quenched with 0.3% (v/v) hydrogen peroxide in 60% (v/v) methanol for 30 min. The sections were permeabilized with 0.1% (w/v) Triton X-100 in PBS for 20 min. Non-specific adsorption was minimized by incubating the section in 2% (v/v) normal goat serum in PBS for 20 min. Endogenous biotin or avidin binding sites were blocked by sequential incubation for 15 min with biotin and avidin (DBA), respectively. Sections were incubated overnight with antinitrotyrosine rabbit polyclonal antibody (Upstate; 1:500 in PBS, v/v), with anti-iNOS polyclonal antibody rat (1:500 in PBS, v/v), anti-COX-2 monoclonal antibody (1:500 in PBS, v/v), anti-Bax rabbit polyclonal antibody (Santa Cruz Biotechnology, Inc., Santa Cruz, Calif.; 1:500 in PBS, v/v), or with anti-Bcl-2 polyclonal antibody rat (Santa Cruz Biotechnology, Inc., Santa Cruz, Calif.; 1:500 in PBS, v/v), or with anti-MPO polyclonal antibody (Santa Cruz Biotechnology, Inc., Santa Cruz, Calif.; 1:500 in PBS, v/v). Sections were washed with PBS, and incubated with secondary antibody. Specific labeling was detected with a biotin-conjugated goat anti-rabbit IgG and avidin-biotin peroxidase complex (DBA) and counterstained whith nuclear fast red. To verify the binding specificity for nitrotyrosine, iNOS, COX-2, Bax, and Bcl-2, some sections were also incubated with only the primary antibody (no secondary) or with only the secondary antibody (no primary).

[4] = test system: Adult male CD1 mice; assay: Spinal cord injury (SCI): light microscopy, histological score, Luxol fast blue; type: in vivo, mouse
Protocol: as §1, with “days.” for “days. Food and water were provided to the mice ad libitum.”
The segments of each spinal cord were evaluated by an experienced histopathologist (RO). Damaged neurons were counted and the histopathologic changes of the gray matter were scored on a 6-point scale (Sirin 2000): 0, no lesion observed, 1, gray matter contained 1 to 5 eosinophilic neurons; 2, gray matter contained 5 to 10 eosinophilic neurons; 3, gray matter contained more than 10 eosinophilic neurons; 4, small infarction (less than one third of the gray matter area); 5, moderate infarction; (one third to one half of the gray matter area); 6, large infarction (more than half of the gray matter area). […]

[5] = test system: Myeloperoxidase (MPO) activity; assay: SCI: myeloperoxidase activity (neutrophil infiltration); type: in vivo, mouse; settings: SCI mice, 24 hours; dosing as E50; ICI 182,780 = co-administration with 17β-estradiol
Protocol: Mice were anaesthetized using chloral hydrate (400 mg/kg body weight) (Genovese 2006). A longitudinal incision was made on the midline of the back, exposing the paravertebral muscles. These muscles were dissected away exposing T5-T8 vertebrae. The spinal cord was exposed via a four-level T6-T7 laminectomy and SCI was produced by extradural compression using an aneurysm clip with a closing force of 24 g. Following surgery, 1 ml of saline was administered subcutaneously in order to replace the blood volume lost during surgery. During the surgery and recovery from anesthesia, the mice were placed on a warm heating pad and covered with a warm towel. The mice were singly housed in a temperature-controlled room at 27° C. and survival was measured over a period of 10 days. Food and water were provided to the mice ad libitum. During this time period, the animals' bladders were manually voided twice a day until the mice were able to regain normal bladder function. In all injured groups, the spinal cord was compressed for 1 min. […] Myeloperoxidase (MPO) activity, an indicator of PMN accumulation, was determined as previously described (Mullane 1985) 24 h after SCI. […] The rate of change in absorbance was measured spectrophotometrically at 650 nm. MPO activity was defined as the quantity of enzyme degrading 1 μmol of peroxide per minute at 37° C. and was expressed in milliunits/g of wet tissue.

[6] = SCI mice, 24 hours, dosing as E50
[7] = spinal cord, 24 hours after SCI

## C[C@]12CC[C@@H]3c4ccc(O)cc4C[C@@H](CCCCCCCCC[S+]([O-])CCCC(F)(F)C(F)(F)F)[C@H]3[C@@H]1CC[C@@H]2O (stereo partly drawn) [ICI 182,780]
[1]
  tissue levels of IL-1β (mRNA): significantly blocked the effect of the 17β-estradiol
  tissue levels of IL-6 (mRNA): significantly blocked the effect of the 17β-estradiol
  tissue levels of MCP-1 (mRNA): significantly blocked the effect of the 17β-estradiol
  tissue levels of TNF-α (mRNA): significantly blocked the effect of the 17β-estradiol
[2]
  Bax expression (Western blot): significantly blocked the effect of the 17β-estradiol on Bax expression
  Bcl-2 expression (Western blot): significantly blocked the effect of the 17β-estradiol on the Bcl2 expression
[3]; [6]
  immunohistological staining for COX-2: significantly blocked the effect of the 17β-estradiol on COX-2 expression
  immunohistological staining for iNOS: significantly blocked the effect of the 17β-estradiol on iNOS expression
  immunohistological staining for nitrotyrosine: significantly blocked the effect of the 17β-estradiol
  staining for MPO: significantly blocked the effect of the 17β-estradiol on the MPO
[3]; [7]
  immunohistological staining for Bax: significantly blocked the effect of the 17β-estradiol
  immunohistological staining for Bcl-2: significantly blocked the effect of the 17β-estradiol
[4]; 24 hours after injury, 17β-estradiol 300 μg/kg s.c. 1 h before, 3 h and 6 h after SCI, ICI 182,780 rows: 500 μg/kg s.c. 1 hour before 17β-estradiol (co-administration)
  histological alteration of spinal cord (H&E, histological score): significantly blocked the effect of the 17β-estradiol on the histological alteration
[4]; 24 hours, dosing as E50, ICI 182,780 = co-administration with 17β-estradiol
  myelin structure (Luxol fast blue staining): significantly blocked the effect of the 17β-estradiol
[5]
  MPO activity in the spinal cord (neutrophil infiltration): significantly blocked the effect of the 17β-estradiol on the neutrophils infiltration
